Results taken from patent US6613734B2, “Peptides-containing liposomal surfactants” (The Scripps Research Institute, priority 1988, dated 2003).
“And” between values parts separate entries of the source, which are not always exact repeats. Equal entries are not always repeated. Marks after values point to notes of the source that are not given here.

Tests used:
fetal rabbit lung [1] = test: static compliance, fetal rabbit model; type: in vivo; conditions: fetal rabbits, after 30 minutes of ventilation, instillation protocols 1 and 5 (FIGS. 2 and 3)
Protocol: A subject polypeptide was first admixed with solvent as described in Example 3. The resulting admixture was further admixed with phospholipid (PL) so that the amount of polypeptide added was either 3%, 7% or 10% by weight of the amount of PL added as indicated below.
Fetal rabbits were treated by injection into the trachea of a 0.1 ml solution that contained either a synthetic surfactant prepared in Example 4A or either 2 mg of native surfactant prepared as described in Example 1 of U.S. Pat. No. 5,260,273 (incorporated by reference herein) or 2 mg PL.
Fetal rabbits were treated by injection into the trachea from a single syringe the following four components such that the four components exit the syringe upon injection in the order listed: (1) 0.2 ml solution that contains either a synthetic surfactant prepared in Example 4A or either 4 mg of native surfactant, or 4 mg PL; (2) a 0.15 ml volume of air; (3) a 0.1 ml normal saline solution; and (4) a 0.3 ml volume of air. The above injection was then repeated 15 minutes after the first injection. […]
Static compliance measurements were made after 30 minutes of ventilation. […] The volume of air required to reach static pressures of 5, 10, 15, 20, 25 and 30 cm H2O was measured during both inflation and deflation phases to generate static pressure to volume curves as a measure of static compliance.

[2] = observation whether peptide/solvent admixture formed a solution or a suspension; type: physicochemical
Protocol: Each polypeptide was admixed with the indicated solvent at a concentration of 2.5 mg of polypeptide per ml of solvent. […] Those admixtures forming a suspension were further admixed by water bath sonication for 10 seconds to form a very fine suspension, sufficient for pipetting using glass pipettes.

[3] = pulsating bubble technique ("bubble assay" of Enhorning, Enhorning Surfactometer); type: physicochemical; conditions: peptide 10% by weight of PL, 37° C., negative pressure, mean of 3; for Pressure Gradient 15″: 15 seconds; for Pressure Gradient 1′: 1 minute; for Pressure Gradient 5′: 5 minutes
Protocol: Measurements of surface pressure across an air-liquid interface (expressed in negative cm of H2O pressure) at minimal (γmin) bubble radius were determined at various times using the pulsating bubble technique described by Enhorning, J. Appl. Physiol. 43: 198-203 (1977).
Briefly, the Enhorning Surfactometer (Surfactometer International, Toronto, Ontario) measures the pressure gradient (ΔP) across a liquid-air interface of a bubble that pulsates at a rate of 20 cycles/min between a maximal (0.55 mm) and minimal (0.4 mm) radius. The bubble, formed in a 37° C., water-enclosed, 20-μl sample chamber, is monitored through a microscopic optic while the pressure changes are recorded on a strip chart recorder calibrated for 0 and −2 cm H2O.
Each of the surfactants identified in Table 5 was assayed for surfactant activity as evidenced by their ability to reduce surface tension in vitro using the “bubble assay” of Enhorning as described above.
After admixture with solvent, each peptide was admixed with phospholipids (PL), DPPC:PG, 3:1, in chloroform in a glass tube so that the amount of polypeptide added equaled one-tenth (10% by. weight) of the amount of PL added, to form a surfactant according to either method A, B or C.
Each of the surfactants was then assayed for surfactant activity as evidenced by their ability to reduce surface tension in vitro in the bubble assay performed as described above. The pressure gradient (ΔP) is a measure of surfactant activity in the polypeptide-PL third admixture which was determined using an Enhorning Surfactometer as described above. Measurements were obtained at time points of 15 seconds (15″), 1 minute (1′) and 5 minutes (5′) and are expressed as a mean of three independent measurements of the indicated polypeptide-PL admixture.

fetal rabbit lung [4] = test: dynamic compliance, fetal rabbit model; type: in vivo; conditions: single animal per line, 10% peptide to PL, Protocol 4
Protocol: A subject polypeptide was first admixed with solvent as described in Example 3. […]
Surfactant was instilled in rabbit fetal lung by injection into the trachea from a single syringe of the following three components such that the components exit the syringe in the following order: (1) 0.05 ml air; (2) 0.1 ml of a synthetic surfactant prepared in Example 4A or either 2 mg of PL or 2 mg of native surfactant; and (3) 0.1 ml air.
From one syringe, a 0.1 ml aliquot of synthetic surfactant prepared as described in Example 4A (or 2 mg of NS or of PL), was instilled into the rabbit trachea as described above, followed by injection of 0.05 ml lactated Ringer's Solution and 0.2 ml air from a second syringe.
From one syringe, 0.1 ml of a synthetic surfactant prepared as described in Example 4A (or 2 mg of NS or of PL), 0.15 ml air, 0.1 ml saline, and 0.3 ml air were injected into the trachea as described above. Two subsequent aliquots of 0.3 ml air were given.
The surfactant activity of exemplary polypeptides of this invention was studied using the methods described in detail previously by Revak, et al, Am. Rev. Respir. Dis. 134: […] (1986), with the exceptions noted hereinbelow.
Twenty-seven day gestation fetal rabbits were delivered by hysterotomy and immediately injected with 0.05 ml Norcuron (Organon, Inc., N.J.) to prevent spontaneous breathing. The fetal rabbits were then weighed and a small cannula was inserted into the trachea by tracheotomy surfactant prepared as described above was then instilled into the fetal rabbit lung by one of the above instillation protocols.
Following instillation the rabbit was placed in a specially designed plethysmograph (containing a Celesco transducer) connected to a ventilator (Baby Bird, Baby Bird Corp., Palm Springs, Calif.) and the instilled lung was ventilated at a rate of 30 cycles per minute with a peak inspiratory pressure of 25 cm H2O, a positive end expiratory pressure of 4 cm H2O and an inspiratory time of 0.5 seconds. In some studies, dynamic compliance measurements were made at various times throughout the ventilation procedure. In others, static compliance measurements were made following ventilation.
Using the plethysmograph, dynamic compliance measurements were made at various times throughout a 60 minute ventilation period. […] Compliance was calculated by the formula below. [formula]
The above equation was solved with a multiple linear regression for C and R. The compliance (C) represents the elastic nature of the lungs and the resistance (R) represents the pressure necessary to overcome the resistance to the flow of gas into and out of the lungs.

FPIPLPYCWLCRALI [p1-15]
lung compliance measured by static compliance, compared with PL alone (fetal rabbit lung [1]): did not produce improved lung compliance over PL alone
Admixture Formed ([2]; 2.5 μg of peptide per μl of solvent, solvent n-propyl alcohol): suspension
Admixture Formed ([2]; 2.5 mg of polypeptide per ml of solvent, solvent N-propanol): suspension
Pressure Gradient 15″ ([3]; PL (DPPC:PG 3:1) 4 mg/ml): 0.94 cm of H2O
Pressure Gradient 1′ ([3]; PL (DPPC:PG 3:1) 4 mg/ml): 0.82 cm of H2O
Pressure Gradient 5′ ([3]; PL (DPPC:PG 3:1) 4 mg/ml): 0.48 cm of H2O

ERYSVILLDTLLGRMLPQLVCRLVLR [p51-76]
Dynamic Compliance, 10 minutes after surfactant instillation (fetal rabbit lung [4]): 33 ml air/cm H2O (g body weight × 10^6) and 10 ml air/cm H2O (g body weight × 10^6) and 15 ml air/cm H2O (g body weight × 10^6)
Dynamic Compliance, 20 minutes after surfactant instillation (fetal rabbit lung [4]): 22 ml air/cm H2O (g body weight × 10^6) and 11 ml air/cm H2O (g body weight × 10^6) and 36 ml air/cm H2O (g body weight × 10^6)
Dynamic Compliance, 30 minutes after surfactant instillation (fetal rabbit lung [4]): 56 ml air/cm H2O (g body weight × 10^6) and 186 ml air/cm H2O (g body weight × 10^6) and 109 ml air/cm H2O (g body weight × 10^6)
Dynamic Compliance, 40 minutes after surfactant instillation (fetal rabbit lung [4]): 87 ml air/cm H2O (g body weight × 10^6) and 358 ml air/cm H2O (g body weight × 10^6) and 241 ml air/cm H2O (g body weight × 10^6)
Dynamic Compliance, 50 minutes after surfactant instillation (fetal rabbit lung [4]): 124 ml air/cm H2O (g body weight × 10^6) and 141 ml air/cm H2O (g body weight × 10^6) and 264 ml air/cm H2O (g body weight × 10^6)
Dynamic Compliance, 60 minutes after surfactant instillation (fetal rabbit lung [4]): 85 ml air/cm H2O (g body weight × 10^6) and 144* ml air/cm H2O (g body weight × 10^6) and 301 ml air/cm H2O (g body weight × 10^6)
Admixture Formed ([2]; 2.5 mg of polypeptide per ml of solvent, solvent 37% chloroform 63% methanol): solution
Pressure Gradient 15″ ([3]; PL (DPPC:PG 3:1) 10 mg/ml): 0.99 cm of H2O
Pressure Gradient 1′ ([3]; PL (DPPC:PG 3:1) 10 mg/ml): 0.91 cm of H2O
Pressure Gradient 5′ ([3]; PL (DPPC:PG 3:1) 10 mg/ml): 0.42 cm of H2O

ERYSVILLDTLLGRMLPQLVCRLVLRCSMD [p51-80]
Dynamic Compliance, 10 minutes after surfactant instillation (fetal rabbit lung [4]): 17 ml air/cm H2O (g body weight × 10^6) and 76 ml air/cm H2O (g body weight × 10^6) and 23 ml air/cm H2O (g body weight × 10^6)
Dynamic Compliance, 20 minutes after surfactant instillation (fetal rabbit lung [4]): 41 ml air/cm H2O (g body weight × 10^6) and 94 ml air/cm H2O (g body weight × 10^6) and 71 ml air/cm H2O (g body weight × 10^6)
Dynamic Compliance, 30 minutes after surfactant instillation (fetal rabbit lung [4]): 52 ml air/cm H2O (g body weight × 10^6) and 149 ml air/cm H2O (g body weight × 10^6) and 130 ml air/cm H2O (g body weight × 10^6)
Dynamic Compliance, 40 minutes after surfactant instillation (fetal rabbit lung [4]): 78 ml air/cm H2O (g body weight × 10^6) and 149 ml air/cm H2O (g body weight × 10^6) and 156 ml air/cm H2O (g body weight × 10^6)
Dynamic Compliance, 50 minutes after surfactant instillation (fetal rabbit lung [4]): 99 ml air/cm H2O (g body weight × 10^6) and 217 ml air/cm H2O (g body weight × 10^6) and 182 ml air/cm H2O (g body weight × 10^6)
Dynamic Compliance, 60 minutes after surfactant instillation (fetal rabbit lung [4]): 208 ml air/cm H2O (g body weight × 10^6) and 308 ml air/cm H2O (g body weight × 10^6) and 109* ml air/cm H2O (g body weight × 10^6)
Admixture Formed ([2]; 2.5 mg of polypeptide per ml of solvent, solvent 45% chloroform 55% methanol): solution
Pressure Gradient 15″ ([3]; PL (DPPC:PG 3:1) 10 mg/ml): 0.92 cm of H2O
Pressure Gradient 1′ ([3]; PL (DPPC:PG 3:1) 10 mg/ml): 0.89 cm of H2O
Pressure Gradient 5′ ([3]; PL (DPPC:PG 3:1) 10 mg/ml): 0.48 cm of H2O
